Data published in patent publication US7713969B2, “Compositions and methods for treatment of cancer” (ArQule, Inc., priority 2005, dated 2010).

Assays:
K562 = experiment: Cell viability MTS assay; assay type: cell-based, human; settings: Homo sapiens, K562, 72 hours with compound
In short: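 Cells are seeded and incubated 16-24 hours, then given compound for 72 hours at 0.33% final DMSO. MTS and PMS are added for 4 hours, followed by SDS to 1.4%, and absorbance is read at 490 nm. IC50 marks a 50% drop in viable cells relative to DMSO-only wells.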

MCF7 = experiment: Cell viability MTS assay; assay type: cell-based, human; settings: Homo sapiens, MCF7, 72 hours with compound
In short: (§1)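 Cells seeded 16-24 h, then exposed to serially diluted compound for 72 h (0.33% DMSO final) at 37° C, 5% CO2. Viability read by MTS/PMS reduction over 4 h, absorbance at 490 nm. IC50 is the concentration giving 50% fewer viable cells than DMSO controls, by non-linear regression.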

A549 = experiment: Cell viability MTS assay; assay type: cell-based, human; settings: Homo sapiens, A549, 72 hours with compound
In short: as §1

SK-MEL-28 = experiment: Cell viability MTS assay; assay type: cell-based, human; settings: Homo sapiens, SK-MEL-28, 72 hours with compound
In short: as §1

PC-3 = experiment: Cell viability MTS assay; assay type: cell-based, human; settings: Homo sapiens, PC-3, 72 hours with compound
In short: as §1

MDA-MB-231 = experiment: Cell viability MTS assay; assay type: cell-based, human; settings: Homo sapiens, MDA-MB-231, 72 hours with compound
In short: as §1

DU-145 = experiment: Cell viability MTS assay; assay type: cell-based, human; settings: Homo sapiens, DU-145, 72 hours with compound
In short: as §1

SKOV-3 = experiment: Cell viability MTS assay; assay type: cell-based, human; settings: Homo sapiens, SK-OV-3, 72 hours with compound
In short: as §1

HT29 = experiment: Cell viability MTS assay; assay type: cell-based, human; settings: Homo sapiens, HT-29, 72 hours with compound
In short: as §1

HCT-116 = experiment: Cell viability MTS assay; assay type: cell-based, human; settings: Homo sapiens, HCT-116, 72 hours with compound
In short: as §1

[1] = system: PACA-2 human pancreatic cancer xenograft; experiment: Pancreatic cancer xenograft model (Example 88); assay type: in vivo, mice; settings: for optimal tumor growth inhibition: daily 5 days on/2 off, 20 doses
Description: (§2) PACA-2 human pancreatic cancer cells were inoculated subcutaneously into female athymic nude mice (5×10^6 cells/mouse) and allowed to form palpable tumors. Once the tumors reached approximately 60 mm^3, the animals were treated orally with (−)-trans-3-(5,6-dihydro-4H-pyrrolo[3,2,1-ij]quinolin-1-yl)-4(1H-indol-3-yl) pyrrolidine-2,5-dione at 200 mg/kg or 300 mg/kg or vehicle control daily (5 consecutive days, followed by a 2 day dosing holiday). (−)-trans-3-(5,6-dihydro-4H-pyrrolo[3,2,1-ij]quinolin-1-yl)-4(1H-indol-3-yl)pyrrolidine-2,5-dione was formulated in PEG 400:20% Vitamin E TPGS (60:40). The animals received a total of 20 doses of (−)-trans-3-(5,6-dihydro-4H-pyrrolo[3,2,1-ij]quinolin-1-yl)-4(1H-indol-3-yl)pyrrolidine-2,5-dione or vehicle control. Tumors were measured throughout treatment and the post-treatment observation period. Each point represents the mean±SEM of ten tumors. (See FIG. 12)

[2] = system: MDA-MB-231 human breast cancer xenograft; experiment: Breast cancer xenograft model (Example 86); assay type: in vivo, mice
Description: as §2, with “MDA-MB-231” for “PACA-2”, “breast” for “pancreatic”, “(8.0×10^6” for “(5×10^6”, “(−)-trans-3-(5,6-dihydro-4H-pyrrolo[3,2,1-ij]quinolin-1-yl)-4(1H-indol-3-yl)pyrrolidine-2,5-dione” for “(−)-trans-3-(5,6-dihydro-4H-pyrrolo[3,2,1-ij]quinolin-1-yl)-4(1H-indol-3-yl) pyrrolidine-2,5-dione”, “200” for “200 mg/kg or 300”, “10)” for “12)”

IC50 (K562) [µM] | IC50 (MCF7) [µM] | IC50 (A549) [µM] | IC50 (SK-MEL-28) [µM] | IC50 (PC-3) [µM] | IC50 (MDA-MB-231) [µM] | IC50 (DU-145) [µM] | IC50 (SKOV-3) [µM] | IC50 (HT29) [µM] | IC50 (HCT-116) [µM] | SMILES | change in body weight ([1]; 200 mg/kg and 300 mg/kg oral administration) | optimal tumor growth inhibition ([1]; 200 mg/kg orally) [%] | optimal tumor growth inhibition ([1]; 300 mg/kg orally) [%] | change in body weight ([2]; 200 mg/kg oral administration) | Tumor growth inhibition ([2]; 200 mg/kg orally, daily 5 days on/2 off, 20 doses) [%]
0.424 | > 100 | 10.7 | 13 | 4.95 | 3.34 | 9.61 | 0.939 | 4.55 | 1.82 | O=C1NC(=O)[C@@H](c2cn3c4c(cccc24)CCC3)[C@@H]1c1c[nH]c2ccccc12 (racemic) [(±)-Trans-3-(5,6-dihydro-4H-pyrrolo[3,2,1-ij]quinolin-1-yl)-4(1H-indol-3-yl)pyrrolidine-2,5-dione] |  |  |  |  | 
0.294 | > 100 | 5.8 | 8.68 | 1.28 | 2.19 | 4 | 0.444 | 1.95 | 0.812 | O=C1NC(=O)C(c2cn3c4c(cccc24)CCC3)C1c1c[nH]c2ccccc12 (single isomer, unassigned; (-)) | no significant change in body weight | 58 | 60 | no significant change in body weight | 79
